Patent US12570642B2, “GLP-IR modulating compounds” (Gilead Sciences, Inc., priority 2021, dated 2026)
pEC50: −log10 of the molar value.

Molecular target: GLP-1R (Homo sapiens, UniProt P43220)
Assay: GLP-1R Activation - cAMP Assay
Assay type: cell-based
Conditions: cAMP increase in CHO cells stably expressing GLP-1R; each compound run on one of the two cAMP assays (Assay 1 or Assay 2, not specified)
In short: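 cAMP rise read by HTRF after 30 min agonist exposure (10-point titration, 37 °C) in HBSS/20 mM Hepes/0.1% BSA, following 1 h pre-incubation. Cells: stable GLP-1R CHO line, 1,000/well, seeded overnight. Sigmoidal fit of response vs log concentration gives EC50.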

GLP-1R, sequence (P43220 24-463): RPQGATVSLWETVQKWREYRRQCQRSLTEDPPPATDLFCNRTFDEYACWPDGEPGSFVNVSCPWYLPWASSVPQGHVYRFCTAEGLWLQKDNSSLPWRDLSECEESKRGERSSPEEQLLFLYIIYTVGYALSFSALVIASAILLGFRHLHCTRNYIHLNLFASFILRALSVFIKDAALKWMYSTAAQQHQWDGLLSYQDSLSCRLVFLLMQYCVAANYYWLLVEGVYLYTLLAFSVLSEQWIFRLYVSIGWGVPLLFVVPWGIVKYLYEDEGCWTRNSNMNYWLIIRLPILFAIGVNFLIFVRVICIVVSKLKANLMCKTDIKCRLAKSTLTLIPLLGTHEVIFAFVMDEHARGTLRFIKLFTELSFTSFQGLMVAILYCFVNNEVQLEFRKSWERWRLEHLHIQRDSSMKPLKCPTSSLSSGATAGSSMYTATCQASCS

`Cn1cc(-c2cc(F)c(COc3cccc(-c4cc(F)c(Cc5nc6ccc(C(=O)O)cc6n5[C@@H]5COCC5(C)C)cc4F)n3)cn2)cn1` (single isomer, unassigned) [Example 58] showed a pEC50 of 9.24.
`CO[C@H](C)Cn1c(Cc2cc(F)c(-c3ccc(F)c(OCc4ccc(C#N)cc4F)n3)cc2F)nc2c(F)cc(C(=O)O)cc21` [Example 368, (R)-2-(4-(6-((4-cyano-2-fluorobenzyl)oxy)-5-fluoropyridin-2-yl)-2,5-difluorobenzyl)-4-fluoro-1-(2-methoxypropyl)-1H-benzo[d]imidazole-6-carboxylic acid] gave a pEC50 of 9.25.
In the case of `COCCn1c(Cc2ccc(-c3cccc(OCc4ccc(C#N)cc4F)c3)nc2)nc2ccc(C(=O)O)cc21` [Example 46], the pEC50 was 7.68.
Work on `CC1(C)COC[C@H]1n1c(Cc2cc(F)c(-c3ccc(F)c(OCc4ccc(C#N)cc4F)n3)cc2F)nc2ccc(C(=O)O)cc21` [Example 496, (S)-2-(4-(6-((4-cyano-2-fluorobenzyl)oxy)-5-fluoropyridin-2-yl)-2,5-difluorobenzyl)-1-(4,4-dimethyltetrahydrofuran-3-yl)-1H-benzo[d]imidazole-6-carboxylic acid] yielded a pEC50 of 10.59.
Work on `CC1(C)COC[C@H]1n1c(Cc2cc(F)c(-c3cccc(OCc4c(F)cc(C#N)cc4F)n3)cc2F)nc2ccc(C(=O)O)cc21` [Example 493, (S)-2-(4-(6-((4-cyano-2,6-difluorobenzyl)oxy)pyridin-2-yl)-2,5-difluorobenzyl)-1-(4,4-dimethyltetrahydrofuran-3-yl)-1H-benzo[d]imidazole-6-carboxylic acid] yielded a pEC50 of 9.56.
In the case of `CC1(C)COC[C@@H]1n1c(Cc2cc(F)c(-c3cccc(OCc4ccc(C(F)F)cc4F)n3)cc2F)nc2ccc(C(=O)O)cc21` (single isomer, unassigned) [Example 383B], the pEC50 was 9.01.
Work on `CO[C@H]1CCOC[C@H]1n1c(Cc2cc(F)c(-c3cccc(OCc4ccc(C#N)cc4F)n3)cc2F)nc2ccc(C(=O)O)cc21` (single isomer, unassigned) [Example 409] yielded a pEC50 of 9.54.
`COc1cc(Cl)ncc1COc1cccc(-c2cc(F)c(Cc3nc4ccc(C(=O)O)cc4n3C3COCC3(C)C)cc2F)n1` (centres unmarked) [Example 294, 2-(4-(6-((6-chloro-4-methoxypyridin-3-yl)methoxy)pyridin-2-yl)-2,5-difluorobenzyl)-1-(4,4-dimethyltetrahydrofuran-3-yl)-1H-benzo[d]imidazole-6-carboxylic acid] was tested, and the pEC50 was 10.68.
`N#Cc1ccc(COc2cccc(-c3cc(F)c(Cc4nc5ccc(C(=O)O)cc5n4[C@H]4C[C@H]5CO[C@@H]4C5)cc3F)n2)c(F)c1` [Example 71, 1-((1R,4R,6S)-2-oxabicyclo[2.2.1]heptan-6-yl)-2-(4-(6-((4-cyano-2-fluorobenzyl)oxy)pyridin-2-yl)-2,5-difluorobenzyl)-1H-benzo[d]imidazole-6-carboxylic Acid] gave a pEC50 of 8.92.
Compound `CC1(C)COCC1n1c(Cc2cc(F)c(-c3cccc(OCc4ccc(C(F)(F)F)cc4F)n3)cc2F)nc2c(F)cc(C(=O)O)cc21` (centres unmarked) [Example 175, 2-(2,5-difluoro-4-(6-((2-fluoro-4-(trifluoromethyl)benzyl)oxy)pyridin-2-yl)benzyl)-1-(4,4-dimethyltetrahydrofuran-3-yl)-4-fluoro-1H-benzo[d]imidazole-6-carboxylic Acid] has a pEC50 of 9.97.
`Cc1ccc(COc2cccc(-c3cc(F)c(Cc4nc5ccc(C(=O)O)cc5n4[C@@H]4COCC4(C)C)cc3F)n2)c(F)c1` [Example 463, (S)-2-(2,5-difluoro-4-(6-((2-fluoro-4-methylbenzyl)oxy)pyridin-2-yl)benzyl)-1-(4,4-dimethyltetrahydrofuran-3-yl)-1H-benzo[d]imidazole-6-carboxylic acid] was tested, and the pEC50 was 9.68.
For `COC[C@H]1COC[C@H]1n1c(Cc2cc(F)c(-c3cccc(OCc4ccc(C#N)cc4F)n3)cc2F)nc2ccc(C(=O)O)cc21` (racemic) [Example 184, 2-(4-(6-((4-cyano-2-fluorobenzyl)oxy)pyridin-2-yl)-2,5-difluorobenzyl)-1-((3S,4S)-4-(methoxymethyl)tetrahydrofuran-3-yl)-1H-benzo[d]imidazole-6-carboxylic Acid], the pEC50 was 9.80.
Work on `Cc1cc(Cc2nc3ccc(C(=O)O)cc3n2[C@@H]2COCC2(C)C)c(Cl)cc1-c1ccnc(OCc2ccc(C#N)cc2F)n1` [Example 320, (S)-2-(2-chloro-4-(2-((4-cyano-2-fluorobenzyl)oxy)pyrimidin-4-yl)-5-methylbenzyl)-1-(4,4-dimethyltetrahydrofuran-3-yl)-1H-benzo[d]imidazole-6-carboxylic acid] yielded a pEC50 of 9.08.
`Cc1cc(Cc2nc3ccc(C(=O)O)cc3n2[C@@H]2COCC2(C)C)c(Cl)cc1-c1ccnc(OCc2ccc(Cl)cc2F)n1` [Example 318, (S)-2-(2-chloro-4-(2-((4-chloro-2-fluorobenzyl)oxy)pyrimidin-4-yl)-5-methylbenzyl)-1-(4,4-dimethyltetrahydrofuran-3-yl)-1H-benzo[d]imidazole-6-carboxylic acid] showed a pEC50 of 9.13.
`COCCn1c(Cc2cc(F)c(-c3cccc(OCc4ccc5nccn5c4)n3)cc2F)nc2ccc(C(=O)O)cc21` [Example 30, 2-(2,5-difluoro-4-(6-(imidazo[1,2-a]pyridin-6-ylmethoxy)pyridin-2-yl)benzyl)-1-(2-methoxyethyl)-1H-benzo[d]imidazole-6-carboxylic Acid] showed a pEC50 of 7.30.
`Cc1cc(Cc2nc3c(F)cc(C(=O)O)cc3n2[C@@H]2COCC2(C)C)c(F)cc1-c1ccnc(OCc2ccc(Cl)cc2)n1` [Example 211, (S)-2-(4-(2-((4-chlorobenzyl)oxy)pyrimidin-4-yl)-2-fluoro-5-methylbenzyl)-1-(4,4-dimethyltetrahydrofuran-3-yl)-4-fluoro-1H-benzo[d]imidazole-6-carboxylic acid] was tested, and the pEC50 was 9.59.
In the case of `COCCn1c(Cc2cc(F)c(-c3cccc(OCc4ccc5c(c4)CN(C(=O)OC)C5)n3)cc2Cl)nc2c(F)cc(C(=O)O)cc21` [Example 258, 2-(2-chloro-5-fluoro-4-(6-((2-(methoxycarbonyl)isoindolin-5-yl)methoxy)pyridin-2-yl)benzyl)-4-fluoro-1-(2-methoxyethyl)-1H-benzo[d]imidazole-6-carboxylic acid], the pEC50 was 9.62.
With `N#Cc1ccc(COc2cccc(-c3cc(F)c(Cc4nc5ccc(C(=O)O)cc5n4[C@@H]4COC[C@@H]4CO)cc3F)n2)c(F)c1` (single isomer, unassigned) [Example 435] the pEC50 was 10.22.
`CC1(C)COC[C@H]1n1c(Cc2cc(F)c(-c3cccc(OCc4c(F)cccc4F)n3)cc2F)nc2ccc(C(=O)O)cc21` [Example 476, (S)-2-(4-(6-((2,6-difluorobenzyl)oxy)pyridin-2-yl)-2,5-difluorobenzyl)-1-(4,4-dimethyltetrahydrofuran-3-yl)-1H-benzo[d]imidazole-6-carboxylic acid] showed a pEC50 of 9.21.
In the case of `COC(=O)c1ccc2nc(Cc3cc(F)c(-c4cccc(OCc5ccc(Cl)cc5F)n4)cc3F)n([C@@H]3COCC3(C)C)c2c1` [Example 532, (S)-methyl 2-(4-(6-((4-chloro-2-fluorobenzyl)oxy)pyridin-2-yl)-2,5-difluorobenzyl)-1-(4,4-dimethyltetrahydrofuran-3-yl)-1H-benzo[d]imidazole-6-carboxylate], the pEC50 was 5.43.
